The test system of series [1] is T. cruzi (Tulahuen strain). In words: microbe, parasite or virus in culture. In kind it is cell-based, Trypanosoma cruzi. The settings on record: for activity at 10 µM / T. cruzi % growth @ 10 uM (Amastigotes): Table S2; for activity at 10 µM: read-out: T. cruzi % growth @ 10 uM (Amastigotes); for EC50: read-out: T. cruzi EC50. The procedure, abridged:
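Tulahuen parasites expressing beta-galactosidase were added (1×10^4 trypomastigotes/well) to 3T3 fibroblasts plated 24 h earlier, 4 h before compound (10 µM final).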

A short description of the next series: in vitro. Format: cell-based, murine. The settings on record: mouse, 3T3 fibroblasts, 72 hours; separate assays separated by semicolons; read-out: Mammalian cell CC50.
In a further series the test system is 3T3 fibroblast cells. Nature of the series: in vitro. In kind it is cell-based, murine. The conditions noted are these: for activity at 10 µM: Mus musculus, NIH3T3, 72 h, read-out: Mammalian (3T3) cell % growth at 10 uM; for activity at 10 µM / Mammalian (3T3) cell % growth at 10 uM: Table S2.
Where [2] appears, read: Trypanosoma cruzi, TULAHUEN, Fibroblast, 120 h.
The mark [3] stands for this setting: Trypanosoma cruzi, TULAHUEN, Fibroblast, 120 h, intracellular amastigotes, 5 days, separate assays separated by semicolons.
The mark [4] stands for this setting: average mammalian cell CC50 divided by average T. cruzi EC50.

Where a name gives a salt, the structure may show the parent alone. Read-outs that look alike come from different tables or passages of the source.

In general, EC50 refers to the concentration giving half of the maximal effect. For orientation: CC50 means the concentration that lowers cell viability or growth by half.

Consider `CN(C)CCC=C1c2ccccc2CCc2ccccc21` [Amitriptyline, dimethyl(3-{tricyclo[9.4.0.0^{3,8}]pentadeca-1(15),3,5,7,11,13-hexaen-2-ylidene}propyl)amine], for which the activity at 10 µM in series [1] (setting [2]) amounted to 15.7%; in the series on 3T3 fibroblast cells, 100%. The EC50 came to 3.56 µM in series [1] (setting [3]) and 6.6 µM in series [1] (intracellular amastigotes, 5 days, separate assays separated by semicolons). The compound further displayed a Selectivity index in series [1] (setting [4]) of 5.7. The CC50 in the series “in vitro” was found to be 36.3 µM; with 3T3 fibroblast cells (3T3 fibroblasts, 72 hours, separate assays separated by semicolons, read-out: Mammalian cell CC50), 22 µM.
With `N=C(N)c1ccc(OCCCCCOc2ccc(C(=N)N)cc2)cc1` [Pentamidine, 2-hydroxyethane-1-sulfonic acid; 4-{[5-(4-carbamimidoylphenoxy)pentyl]oxy}benzene-1-carboximidamide], the activity at 10 µM in series [1] (setting [2]) is 17.6%; in the series on 3T3 fibroblast cells, 94.8%. Moreover, the EC50 in series [1] (setting [3]) came out at 0.181 µM; in series [1] (Trypanosoma cruzi, TULAHUEN, Fibroblast, Table S2, amastigotes) it was 0.18 µM. Further, the Selectivity index in series [1] (setting [4]) is recorded as >276. Also, in “in vitro”, the CC50 was > 50 µM.
`CN(C/C=C/C#CC(C)(C)C)Cc1cccc2ccccc12` [Terbinafine] had a Selectivity index in series [1] of 2.9. The EC50 in series [1] (setting [3]) was 17.4 µM. Moreover, the CC50 in “in vitro” worked out at 51 µM.
As to `CCC(C)(C)C(=O)OC1CC(C)C=C2C=CC(C)C(CCC3CC(O)CC(=O)O3)C21` (centres unmarked) [Simvastatin, 8-[2-(4-hydroxy-6-oxooxan-2-yl)ethyl]-3,7-dimethyl-1,2,3,7,8,8a-hexahydronaphthalen-1-yl 2,2-dimethylbutanoate], in series [1] (setting [3]), the EC50 amounted to 0.4 µM. Also, the cytotoxic concentration (CC50) at 72 h in “in vitro” amounted to 4 µM.
Consider `NCCC(O)(P(=O)(O)O)P(=O)(O)O` [Pamidronate], for which the EC50 in series [1] (setting [3]) turned out to be 3 µM. Moreover, the Selectivity index in series [1] (setting [4]) is listed as 8.6. Also, the CC50 in the series “in vitro” turned out to be 25.7 µM.
Consider `CC1CCC2(NC1)OC1CC3C4CCC5CC(O)CCC5(C)C4CCC3(C)C1C2C` (centres unmarked) [TOMATIDINE, 5',7,9,13-tetramethyl-5-oxaspiro[pentacyclo[10.8.0.0^{2,9}.0^{4,8}.0^{13,18}]icosane-6,2'-piperidine]-16-ol hydrochloride], for which the activity at 10 µM in series [1] (setting [2]) was found to be 8.5%; in the series on 3T3 fibroblast cells it was 100%.
`CCCC(C(=O)OCCN(CC)CC)(c1ccccc1)c1ccccc1` [PROADIFEN, 2-(diethylamino)ethyl 2,2-diphenylpentanoate]: the figures for the activity at 10 µM (in series [1] (setting [2]); in the series on 3T3 fibroblast cells) were 2.1% and 100%, respectively.
On the same counts, the results for `CC(C)CCC[C@@H](C)[C@H]1CC[C@H]2[C@@H]3C(=O)C=C4C[C@@H](O)CC[C@]4(C)[C@H]3CC[C@]12C` [7-OXOCHOLESTEROL, (1S,2R,5S,10S,11S,14R,15R)-5-hydroxy-2,15-dimethyl-14-[(2R)-6-methylheptan-2-yl]tetracyclo[8.7.0.0^{2,7}.0^{11,15}]heptadec-7-en-9-one] are 23.4% and 68.5%.
On the same counts, the results for `CC(=O)OC1CCC2(C)C3=C(CCC2C1(C)C)C1(C)CCC(C(C)CCC=C(C)C)C1(C)CC3` (centres unmarked) [EUPHOL ACETATE, 2,6,6,11,15-pentamethyl-14-(6-methylhept-5-en-2-yl)tetracyclo[8.7.0.0^{2,7}.0^{11,15}]heptadec-1(10)-en-5-yl acetate] are 12% and 87.6%.
Consider `COc1ccc2c(c1)OC/C(=C/c1ccc(OC)c(OC)c1)C2=O` [SAPPANONE A TRIMETHYL ETHER], for which the activity at 10 µM in series [1] (setting [2]) is 7.5%; in the series on 3T3 fibroblast cells it was 74.6%.
For `CN1CCc2c(c3ccccc3n2Cc2ccccc2)C1.O=S(=O)(O)c1cccc2c(S(=O)(=O)O)cccc12` [MEBHYDROLIN NAPHTHALENESULFONATE, 5-benzyl-2-methyl-1H,2H,3H,4H,5H-pyrido[4,3-b]indole; naphthalene-1,5-disulfonic acid], the “T. cruzi % growth @ 10 uM (Amastigotes)” value in series [1] is given as 3.3%. Moreover, the “Mammalian (3T3) cell % growth at 10 uM” value in the series with 3T3 fibroblast cells was determined as 100%.
On to `O=c1c(O)c(-c2ccccc2)oc2cccc(O)c12` [3,5-DIHYDROXYFLAVONE], for which the results for the activity at 10 µM (in series [1] (setting [2]); in the series with 3T3 fibroblast cells) were 12.3% and 99.6%, respectively.
On the same counts, the results for `COc1ccc(-c2cc(=O)c3c(O)cc(O)cc3o2)cc1` [ACACETIN, 5,7-dihydroxy-2-(4-methoxyphenyl)-4H-chromen-4-one] are 23.1% and 77.4%.
On the same counts, the results for `O=c1c(O)c(-c2ccccc2)oc2ccccc12` [3-HYDROXYFLAVONE, 3-hydroxy-2-phenyl-4H-chromen-4-one] are 4.1% and 85.7%.
On the same counts, the results for `CC1(C)C=CC(=O)C2(C)C1CC(=O)C1(C)C2CCC2(C)C(c3ccoc3)OC(=O)C3OC321` (centres unmarked) [DEACETOXY-7-OXISOGEDUNIN, 7-(furan-3-yl)-1,8,12,16,16-pentamethyl-3,6-dioxapentacyclo[9.8.0.0^{2,4}.0^{2,8}.0^{12,17}]nonadec-14-ene-5,13,19-trione] are 3.9% and 100%.
On to `O=c1cc(-c2cc(O)c(O)c(O)c2)oc2cc(O)cc(O)c12` [HIERACIN, 5,7-dihydroxy-2-(3,4,5-trihydroxyphenyl)-4H-chromen-4-one], for which the activity at 10 µM in series [1] (setting [2]) was 6.5%; in the series on 3T3 fibroblast cells it was 100%.
In the case of `CCOc1ccc(C(=O)c2ccc(OC)c(O)c2O)cc1` [2,3-DIHYDROXY-4-METHOXY-4'-ETHOXYBENZOPHENONE], the activity at 10 µM in series [1] (setting [2]) worked out at 9.1%; in the series with 3T3 fibroblast cells, 95.8%.
On the same counts, the results for `CC(=O)OC1CC2C(C)(C)C(=O)C3OC3C2(C)C2CCC3(C)C(c4ccoc4)OC(=O)C4OC43C12C` (centres unmarked) [EPOXYGEDUNIN, 7-(furan-3-yl)-1,8,12,17,17-pentamethyl-5,16-dioxo-3,6,14-trioxahexacyclo[9.9.0.0^{2,4}.0^{2,8}.0^{12,18}.0^{13,15}]icosan-20-yl acetate] are 4.4% and 73.4%.
On the same counts, the results for `CC(=O)OC1CCC2(C)C(CC(OC(C)=O)C3(C)C4=CC(=O)OC(c5ccoc5)C4(C)CCC23)C1(C)C` (stereo not drawn) [3-DEOXO-3beta-ACETOXYDEOXYDIHYDROGEDUNIN, 18-(acetyloxy)-6-(furan-3-yl)-1,7,11,15,15-pentamethyl-4-oxo-5-oxatetracyclo[8.8.0.0^{2,7}.0^{11,16}]octadec-2-en-14-yl acetate] are 7.8% and 100%.
On the same counts, the results for `COc1ccc2c(c1)OC[C@@H](Cc1ccc(OC)c(OC)c1)[C@@H]2O` [3-DESHYDRO[…] ETHER] are 24.9% and 80.4%.
`CN1CCN(CCCN2c3ccccc3Sc3ccc(C(F)(F)F)cc32)CC1` [TRIFLUOPERAZINE, 10-[3-(4-methylpiperazin-1-yl)propyl]-2-(trifluoromethyl)-10H-phenothiazine]: the activity at 10 µM in series [1] (setting [2]) came to 20.4%; in the series with 3T3 fibroblast cells it was 94.7%.
On the same counts, the results for `CC(C)=CCc1c(O)cc2occ(-c3ccc4c(c3)OCO4)c(=O)c2c1O` [DERRUBONE] are 22.8% and 75.4%.
On the same counts, the results for `CC(=O)OC1c2c(ccc3ccc(=O)oc23)OC(C)(C)C1OC(=O)CC(C)C` (centres unmarked) [DIHYDROSAMIDIN, 14-(acetyloxy)-12,12-dimethyl-4-oxo-3,11-dioxatricyclo[8.4.0.0^{2,7}]tetradeca-1(10),2(7),5,8-tetraen-13-yl 3-methylbutanoate] are 10.9% and 81.2%.
On the same counts, the results for `COc1ccc(CCN2CCC(Nc3nc4ccccc4n3Cc3ccc(F)cc3)CC2)cc1` [ASTEMIZOLE, 1-[(4-fluorophenyl)methyl]-N-{1-[2-(4-methoxyphenyl)ethyl]piperidin-4-yl}-1H-1,3-benzodiazol-2-amine] are 11.6% and 100%.
For `CC(=O)OC1CC2C(C)(C)C(O)CCC2(C)C2CCC3(C)C(c4ccoc4)OC(=O)C4OC43C12C` (stereo not drawn) [beta-DIHYDROGEDUNOL, 7-(furan-3-yl)-15-hydroxy-1,8,12,16,16-pentamethyl-5-oxo-3,6-dioxapentacyclo[9.8.0.0^{2,4}.0^{2,8}.0^{12,17}]nonadecan-19-yl acetate], the activity at 10 µM in series [1] (setting [2]) is 21.8%; in the series with 3T3 fibroblast cells, 76.3%.
`CN1CCC(=C2c3ccccc3Sc3ccccc32)CC1` [PIMETHIXENE, 1-methyl-4-(9H-thioxanthen-9-ylidene)piperidine]: the activity at 10 µM is 3.9% in series [1] (setting [2]) and 98.5% in the series with 3T3 fibroblast cells.
On the same counts, the results for `Clc1ccccc1C(c1ccccc1)(c1ccccc1)n1ccnc1` [CLOTRIMAZOLE, 1-[(2-chlorophenyl)diphenylmethyl]-1H-imidazole] are 10.2% and 100%.
As to `CC(=O)O[C@@H]1CC2C(C)(C)[C@H](O)CC[C@]2(C)C2CC[C@@]3(C)[C@H](c4ccoc4)OC(=O)C4OC43[C@@]21C` (stereo partly drawn) [alpha-DIHYDROGEDUNOL], the “T. cruzi % growth @ 10 uM (Amastigotes)” value in series [1] came to 3.8%. Further, the “Mammalian (3T3) cell % growth at 10 uM” value in the series on 3T3 fibroblast cells is recorded as 90.8%.
On to `COc1c2c(cc3occ(-c4ccc5c(c4)OCO5)c(=O)c13)OC(C)(C)C=C2` [METHYL ROBUSTONE, 3-(2H-1,3-benzodioxol-5-yl)-5-methoxy-8,8-dimethyl-4H,8H-pyrano[3,2-g]chromen-4-one], for which the figures for the activity at 10 µM (in series [1] (setting [2]); in the series with 3T3 fibroblast cells) were 2.5% and 68.2%, respectively.
On the same counts, the results for `C=CC(C)(O)CCC1C(=C)CCC2C(C)(CO)CCCC12C` (stereo not drawn) [EPI(13)TORULOSOL, 5-[5-(hydroxymethyl)-5,8a-dimethyl-2-methylidene-decahydronaphthalen-1-yl]-3-methylpent-1-en-3-ol] are 14.5% and 86.1%.

The values are drawn from article PMC4102417 (PLoS Neglected Tropical Diseases, 2014).
